Experimental data reported in patent US20250262170A1, “COMBINATIONS OF BETA 2-ADRENERGIC RECEPTOR AGONISTS AND BETA 3-ADRENERGIC RECEPTOR AGONISTS, AND MEDICAL USES THEREOF” (ATROGI AB, priority 2022, published 2025).

Target: T1, human β3-adrenergic receptor (Homo sapiens, UniProt P13945)
T1 construct: expressed in transfected cells
Assay: cAMP levels in CHO-K1 cells expressing the human β3-adrenergic receptor
Format: cell-based
Details: CHO-K1, 0.25 h, 15 min, read-out: Activity (intracellular cAMP compared to that of isoproterenol)
Method: CHO-K1 cells stably expressing the human β3-adrenergic receptors were serum-starved overnight and stimulated with an agonist, final concentration 1×10^−5 M, for 15 min in stimulation buffer (HBSS supplemented with 1% BSA, 5 mM HEPES and 1 mM IBMX, pH 7.4) The medium was then aspirated and to end the reaction, 100 μL of 95% EtOH was added to each well of the 24-well plate and cells were kept at −20° C. overnight. The next day EtOH was allowed to evaporate and 250 μL of lysis buffer (1% BSA, 5 mM HEPES and 0.3% Tween-20, pH 7.4) was added to each well. The plate was kept at −80° C. for 30 min and thawed in room temperature. Intracellular cAMP levels were detected using an alpha screen cAMP kit (6760635D from Perkin Elmer). The activity for each compound is compared to that of isoproterenol.

T1 sequence (P13945 whole entry): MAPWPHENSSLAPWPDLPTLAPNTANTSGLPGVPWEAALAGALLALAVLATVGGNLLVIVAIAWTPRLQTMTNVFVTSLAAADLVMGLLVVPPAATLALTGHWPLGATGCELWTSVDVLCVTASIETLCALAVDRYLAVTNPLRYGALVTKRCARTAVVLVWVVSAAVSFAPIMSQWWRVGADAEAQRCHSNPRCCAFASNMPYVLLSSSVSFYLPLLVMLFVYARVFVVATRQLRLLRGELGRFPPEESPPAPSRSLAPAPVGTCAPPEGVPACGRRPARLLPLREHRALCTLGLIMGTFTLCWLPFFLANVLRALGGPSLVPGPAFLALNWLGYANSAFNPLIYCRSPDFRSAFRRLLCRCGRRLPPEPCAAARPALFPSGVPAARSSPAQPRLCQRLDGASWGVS

CC(=O)N[C@H]1CC[C@@H](C[C@@H]2CC[C@H]([C@H](O)c3cccc(F)c3F)N2)CC1 [Compound 1, N-((cis)-4-(((2S,5R)-5-((R)-(2,3-difluorophenyl)-(hydroxy)methyl)pyrrolidin-2-yl)methyl)cyclohexyl)-acetamide] gave an Emax at 10 µM greater than 75%.

CN(C)C(=O)N1CCC[C@@H](CC(C)(C)NC[C@H](O)c2cncc(F)c2)C1 [Compound 2, (S)-3-(2-(((R)-2-(5-fluoro-pyridin-3-yl)-2-hydroxy-ethyl)amino)-2-methyl-propyl)-N,N-dimethyl-piperidine-1-carboxamide] was tested, and the Emax at 10 µM was 50 to 75%.

CNC(=O)N1CCC[C@@H](CC(C)(C)NC[C@H](O)c2cccc(F)c2)C1 [Compound 3, (S)-3-(2-(((R)-2-(3-fluorophenyl)-2-hydroxy-ethyl)amino)-2-methyl-propyl)-N-methylpiperidine-1-carboxamide] gave an Emax at 10 µM greater than 75%.

CN(C)C(=O)N1CCC[C@@H](CC(C)(C)NC[C@H](O)c2cccc(F)c2)C1 [Compound 4, (S)-3-(2-(((R)-2-(3-fluoro-phenyl)-2-hydroxyethyl)-amino)-2-methylpropyl)-N,N-dimethylpiperidine-1-carboxamide] showed an Emax at 10 µM greater than 75%.

In the case of COC(=O)N1CCC[C@@H](CC(C)(C)NC[C@H](O)c2cccc(F)c2)C1 [Compound 5, methyl (S)-3-(2-(((R)-2-(3-fluorophenyl)-2-hydroxy-ethyl)amino)-2-methyl-propyl)piperidine-1-carboxylate], the Emax at 10 µM is reported as greater than 75%.

CO[C@H]1CC[C@H](C[C@@H]2CC[C@H]([C@H](O)c3cccc(F)c3F)N2)CC1 [Compound 6, (R)-(2,3-difluorophenyl)-((2R,5S)-5-(((trans)-4-methoxycyclohexyl)methyl)-pyrrolidin-2-yl)methanol] was tested, and the Emax at 10 µM was greater than 75%.

CO[C@H]1CC[C@@H](C[C@@H]2CC[C@H]([C@H](O)c3cccc(F)c3F)N2)CC1 [Compound 7, (R)-(2,3-difluorophenyl)-((2R,5S)-5-(((cis)-4-methoxycyclohexyl)methyl)-pyrrolidin-2-yl)methanol] showed an Emax at 10 µM of 50 to 75%.

With CC(C)(C[C@@H]1CCCN(C(=O)C(F)(F)F)C1)NC[C@H](O)c1cccc(F)c1 [Compound 9, 2,2,2-trifluoro-1-((S)-3-(2-(((R)-2-(3-fluorophenyl)-2-hydroxyethyl)amino)-2-methylpropyl)piperidin-1-yl)-ethan-1-one] the Emax at 10 µM was 50 to 75%.

CCCS(=O)(=O)N[C@H]1CC[C@H](CC(C)(C)NC[C@H](O)c2cncc(F)c2)CC1 [Compound 10, N-((trans)-4-(2-(((R)-2-(5-fluoropyridin-3-yl)-2-hydroxyethyl)amino)-2-methylpropyl)cyclohexyl)-propane-1-sulfonamide] showed an Emax at 10 µM greater than 75%.

CC(C)(C[C@H]1CC[C@H](NS(=O)(=O)C(F)(F)F)CC1)NC[C@H](O)c1cncc(F)c1 [Compound 11, 1,1,1-trifluoro-N-((1R,4r)-4-(2-(((R)-2-(5-fluoropyridin-3-yl)-2-hydroxyethyl)amino)-2-methylpropyl)cyclohexyl)-methanesulfonamide] gave an Emax at 10 µM greater than 75%.

Work on CCCCS(=O)(=O)N[C@H]1CC[C@@H](CC(C)(C)NC[C@H](O)c2cccc(F)c2)CC1 [Compound 12] yielded an Emax at 10 µM greater than 75%.

Work on CCCCS(=O)(=O)N[C@H]1CC[C@H](CC(C)(C)NC[C@H](O)c2cccc(F)c2)CC1 [Compound 13] yielded an Emax at 10 µM greater than 75%.

In the case of CC(C)CS(=O)(=O)N[C@H]1CC[C@@H](CC(C)(C)NC[C@H](O)c2cncc(F)c2)CC1 [Compound 14, N-((cis)-4-(2-(((R)-2-(5-fluoropyridin-3-yl)-2-hydroxyethyl)amino)-2-methylpropyl)cyclohexyl)-2-methylpropane-1-sulfonamide], the Emax at 10 µM is reported as 50 to 75%.

Compound CC(C)CS(=O)(=O)N[C@H]1CC[C@@H](CC(C)(C)NC[C@H](O)c2cccc(F)c2)CC1 [Compound 16, N-((cis)-4-(2-(((R)-2-(3-fluorophenyl)-2-hydroxy-ethyl)amino)-2-methyl-propyl)cyclohexyl)-2-methyl-propane-1-sulfonamide] has an Emax at 10 µM greater than 75%.
